Measurements reported in patent US4533654A, “Urotensin peptides” (The Salk Institute For Biological Studies, priority 1984, dated 1985).
Like-named read-outs stand apart in the source and are kept apart here.

Assays:
[1] = tested on: secretion of ACTH and β-endorphin; conditions: reported in the literature; cited from earlier work
blood pressure [2] = conditions: mammals; reported in the literature; cited from earlier work
[3] = tested on: cultured rat pituitary cells; experiment: Secretion of ACTH and β-endorphin by cultured rat pituitary cells; assay type: cell-based; conditions: for stimulation of the secretion of ACTH and β-endorphin: in vitro
Experimental: (§1) The urotensin peptides from Example II and III are examined for effects on the secretion of ACTH and β-endorphin in vitro and also examined in vivo. […] UI activity of the peptides was measured by the isolated rat hind limb assay, Lederis, K. et al. "Effects and Assay of Urotensin I on the Perfused Hind Limb of the Rat." Gen. Comp. Endocrinol., 24:10-16, 1974. In vivo hypotensive activity of extracted peptides was measured in anaesthetized rats, Lederis, K. and Medakovic, M. "Pharmacological Observations on the Hypotensive Action of Extracts of Teleost Fish Urophyses (Urotensin I) in the Rat." Br. J. Pharmacol. 51:315-324, 1974, and in anaesthetized dogs, MacCannell and Lederis, "Dilatation of the Mesenteric Vascular Bed of the Dog Produced by a Peptide, Urotensin I." J. Pharm. Exp. Ther. 203:38-46, 1977.

[4] = Comparison of the two extracted and the two synthetic carp peptides (assay not specified); conditions: synthetic versus extracted peptide
Experimental: (§2) In the pentobarbital-anaesthetized dog, the threshold dose of UI for mesenteric vasodilatation, when given close arterially into the cephalic mesenteric A, is between 0.001 and 0.01 μg for both carp UI (1-41) and for the 4-41 fragment of carp UI. Doses of 0.1-0.5 μg of both peptides produce a 50-150% increase in mesenteric flow; accompanying changes in blood pressure are very modest (about 10% decrease). […] Comp. Endocrinol. 45:446-452, 1981.

[5] = tested on: isolated mesenteric artery strips; experiment: Isolated mesenteric artery strips of the rat
teleost fish pituitaries = experiment: Secretion of ACTH by teleost fish pituitaries
Experimental: as §1

mesenteric vascular bed [6] = experiment: Blood pressure and vascular dilatation in the monkey; assay type: in vivo; conditions: for effect on blood pressure: appears due solely to dilatation of the mesenteric vascular bed
isolated rat hind limb = experiment: Isolated rat hind limb assay (UI activity)
Experimental: as §1, §2

[7] = Biological activity (test not specified)
mesenteric vascular bed [8] = experiment: Blood pressure and mesenteric vasodilatation in the anaesthetized dog; assay type: in vivo; conditions: for potency of synthetic peptide versus extracted and purified peptide: anaesthetized dog in vivo; for dilatation of vascular beds other than mesenteric / effect on blood pressure: dog; for effect on blood pressure: appears due solely to dilatation of the mesenteric vascular bed; for accompanying decrease in blood pressure / increase in mesenteric flow: pentobarbital-anaesthetized dog, doses of 0.1-0.5 μg
Experimental: as §1, §2

blood pressure [9] = experiment: In vivo hypotensive activity in anaesthetized rats; conditions: rat; vascular dilatation appears less selective
Experimental: as §1

[10] = tested on: ACTH and β-END-LI secretion; experiment: ACTH and β-END-LI secretion in vivo in several rat preparations
Experimental: as §1

blood pressure [11] = experiment: Lowering of blood pressure (summary statement, species not stated); assay type: in vivo

Row | Compound | potency to stimulate ACTH and β-endorphin secretion relative to amunine (CRF) [3] | activity of synthetic peptide as % of the activity of the respective extracted carp UI peptide [4] [%] | potency of synthetic peptide versus extracted and purified peptide [5] | potency relative to amunine in stimulating the secretion of ACTH (teleost fish pituitaries) | dilatation of vascular beds other than mesenteric (mesenteric vascular bed [6]) | effect on blood pressure (mesenteric vascular bed [6]) | potency of synthetic peptide versus extracted and purified peptide (isolated rat hind limb) | potency of synthetic peptide versus extracted and purified peptide (mesenteric vascular bed [8]) | dilatation of vascular beds other than mesenteric (mesenteric vascular bed [8]) | effect on blood pressure (mesenteric vascular bed [8]) | accompanying decrease in blood pressure (mesenteric vascular bed [8]) | increase in mesenteric flow (mesenteric vascular bed [8]) | effect on blood pressure (blood pressure [9]) | also measured
1 | CC[C@H](C)[C@H](NC(=O)[C@@H](NC(=O)[C@H](CC(=O)O)NC(=O)[C@H](CC(C)C)NC(=O)[C@H](CC(C)C)NC(=O)[C@H](CC(C)C)NC(=O)[C@H](CCCNC(=N)N)NC(=O)[C@H](CC(N)=O)NC(=O)[C@H](CC(N)=O)NC(=O)[C@H](C)NC(=O)[C@H](C)NC(=O)[C@H](CCC(N)=O)NC(=O)[C@H](CCC(N)=O)NC(=O)[C@H](CCCCN)NC(=O)[C@H](CCC(=O)O)NC(=O)[C@H](CCCCN)NC(=O)[C@H](CCC(=O)O)NC(=O)[C@H](CCC(N)=O)NC(=O)[C@H](CCCCN)NC(=O)[C@H](CCC(=O)O)NC(=O)[C@@H](NC(=O)[C@H](CCC(=O)O)NC(=O)[C@@H](NC(=O)[C@H](CCSC)NC(=O)[C@H](CCCCN)NC(=O)[C@H](CCCNC(=N)N)NC(=O)[C@H](CC(C)C)NC(=O)[C@H](CC(C)C)NC(=O)[C@H](CCC(=O)O)NC(=O)[C@H](CC(C)C)NC(=O)[C@H](CO)NC(=O)[C@H](CC(C)C)NC(=O)[C@H](CC(=O)O)NC(=O)[C@@H](NC(=O)[C@H](CO)NC(=O)[C@@H](NC(=O)[C@@H]1CCCN1C(=O)[C@@H]1CCCN1C(=O)CNC(=O)[C@@H]1CCC(=O)N1)[C@@H](C)CC)[C@@H](C)CC)[C@@H](C)CC)[C@@H](C)CC)[C@@H](C)O)C(N)=O [Sauvagine] |  |  |  |  |  |  |  |  |  |  |  |  |  | stimulating the secretion of ACTH and β-endorphin [1]: stimulating the secretion of ACTH and β-endorphin; lowering blood pressure (blood pressure [2]): biological activity in lowering blood pressure in mammals
2 | H-PPISIDLTFHLLRNMIEMARNENQREQAGLNRKYLDEV-NH2 [UI 4-41] | comparable to amunine (CRF) | 123±58 | equipotent with the extracted and purified peptides | several times more potent than amunine | neither peptide dilates other vascular beds | modest but sustained depression of the blood pressure | equipotent with the extracted and purified peptides | equipotent with the extracted and purified peptides | neither peptide dilates other vascular beds | modest but sustained depression of the blood pressure | about 10% | 50-150% | more marked fall in blood pressure | stimulation of the secretion of ACTH and β-endorphin [3]: high potency; biological activity [7]: substantially the same biological activity as the 41-residue polypeptide; stimulation of ACTH and β-END-LI secretion in vivo [10]: stimulate ACTH and β-END-LI secretion in vivo
3 | H-NDDPPISIDLTFHLLRNMIEMARNENQREQAGLNRKYLDEV-NH2 [carp UI (1-41)] | comparable to amunine (CRF) | 119±19 | equipotent with the extracted and purified peptides | several times more potent than amunine | neither peptide dilates other vascular beds | modest but sustained depression of the blood pressure | equipotent with the extracted and purified peptides | equipotent with the extracted and purified peptides | neither peptide dilates other vascular beds | modest but sustained depression of the blood pressure | about 10% | 50-150% | more marked fall in blood pressure | stimulation of the secretion of ACTH and β-endorphin ([3]; listed as UI): stimulate ACTH and β-endorphin activities in vitro; stimulation of the secretion of ACTH and β-endorphin ([3]; listed as urotensin I): high potency; lowering of blood pressure (blood pressure [11]): lower blood pressure for an extended time period; stimulation of ACTH and β-END-LI secretion in vivo ([10]; listed as UI): stimulate ACTH and β-endorphin activities in vitro and in vivo; stimulation of ACTH and β-END-LI secretion in vivo ([10]; listed as urotensin I): stimulate ACTH and β-END-LI secretion in vivo
